The source of these data is ChEMBL document CHEMBL4393691, “Design, synthesis and antitumor evaluation of novel celastrol derivatives” (Eur J Med Chem, 2019).

For assay [1], the system named is A549. Briefly: Cell cycle arrest in human A549 cells assessed as accumulation at G2 phase at 0.27 uM incubated for 12 hrs by propidium iodide staining based flow cytometry analysis (Rvb=11.7%). Type of assay: functional.
Assay [2] deals with A549. As to the kind of experiment: Inhibition of Hsp90-Cdc37 interaction in human A549 cells assessed as decrease in Cdc37 protein level at 5 uM incubated for 6 hrs by immunoprecipitation assay. The format is cell-based.
The subject of assay [3] is A549. As to the kind of experiment: Induction of apoptosis in human A549 cells assessed as viable cells at 0.4 uM incubated for 24 hrs by AnnexinV-FITC/propidium iodide staining-based flow cytometric analysis (reference value: 88.1%). The format is functional. As to conditions: A549, 24 h, read-out: Activity.
Assay [4] has as its system MCF7. Briefly: cells. As to conditions: Homo sapiens, MCF7, 48 h.
For assay [5], the system named is A549. As to the kind of experiment: Induction of apoptosis in human A549 cells assessed as necrotic cells at 0.2 uM incubated for 24 hrs by AnnexinV-FITC/propidium iodide staining-based flow cytometric analysis (reference value: 3.6%). The format is functional.
Assay [6] deals with A549. Briefly: Cell cycle arrest in human A549 cells assessed as accumulation at G1 phase at 0.06 uM incubated for 24 hrs by propidium iodide staining based flow cytometry analysis (Rvb=55.3%). Type of assay: functional.
The subject of assay [7] is A549. Briefly: Induction of apoptosis in human A549 cells assessed as necrotic cells at 0.6 uM incubated for 24 hrs by AnnexinV-FITC/propidium iodide staining-based flow cytometric analysis (reference value: 3.6%). Type of assay: functional.
Assay [8] deals with A549. Briefly: Induction of apoptosis in human A549 cells assessed as late apoptotic cells at 0.4 uM incubated for 24 hrs by AnnexinV-FITC/propidium iodide staining-based flow cytometric analysis (reference value: 4.2%). The format is functional.
Assay [9] relates to A549. As to the kind of experiment: Cell cycle arrest in human A549 cells assessed as accumulation at G1 phase at 0.06 uM incubated for 12 hrs by propidium iodide staining based flow cytometry analysis (Rvb=49.49%). Type of assay: functional.
Assay [10] concerns A549. Briefly: Induction of apoptosis in human A549 cells assessed as viable cells at 1.2 uM incubated for 24 hrs by AnnexinV-FITC/propidium iodide staining-based flow cytometric analysis (reference value: 88.1%). Type of assay: functional. As to conditions: A549, 24 h, read-out: Activity.
Assay [11] deals with A549. As to the kind of experiment: Cell cycle arrest in human A549 cells assessed as accumulation at S phase at 0.27 uM incubated for 12 hrs by propidium iodide staining based flow cytometry analysis (Rvb=38.46%). Type of assay: functional.
Assay [12] concerns A549. Briefly: Induction of apoptosis in human A549 cells assessed as decrease in Bcl-2 expression incubated for 8 hrs by western blot analysis. The format is functional, cell-based.
Assay [13] has as its system A549. Briefly: Induction of apoptosis in human A549 cells assessed as increase in Fas-L expression at 0.5 to 2 uM incubated for 8 hrs by western blot analysis. Type of assay: functional, cell-based.
In assay [14] the test system is A549. As to the kind of experiment: Induction of apoptosis in human A549 cells assessed as cell shrinkage at 0.06 to 0.18 uM incubated for 48 hrs by Hoechst 33342 staining-based fluorescence microscopy. Type of assay: functional.
The subject of assay [15] is A549. As to the kind of experiment: Cell cycle arrest in human A549 cells assessed as accumulation at S phase at 0.27 uM incubated for 24 hrs by propidium iodide staining based flow cytometry analysis (Rvb=27.61%). Type of assay: functional.
Assay [16] concerns A549. Briefly: Induction of apoptosis in human A549 cells assessed as increase in caspase-3 expression incubated for 8 hrs by western blot analysis. The format is functional, cell-based.
The subject of assay [17] is A549. As to the kind of experiment: Induction of apoptosis in human A549 cells assessed as viable cells at 0.8 uM incubated for 24 hrs by AnnexinV-FITC/propidium iodide staining-based flow cytometric analysis (reference value: 88.1%). Type of assay: functional. As to conditions: A549, 24 h, read-out: Activity.
For assay [18], the system named is A549. Briefly: Cell cycle arrest in human A549 cells assessed as accumulation at S phase at 0.18 uM incubated for 12 hrs by propidium iodide staining based flow cytometry analysis (Rvb=38.46%). Type of assay: functional.
Assay [19] relates to A549. Briefly: Cell cycle arrest in human A549 cells assessed as accumulation at S phase at 0.06 uM incubated for 24 hrs by propidium iodide staining based flow cytometry analysis (Rvb=27.61%). Type of assay: functional.
Assay [20] relates to A549. As to the kind of experiment: Cell cycle arrest in human A549 cells assessed as accumulation at G1 phase at 0.27 uM incubated for 12 hrs by propidium iodide staining based flow cytometry analysis (Rvb=49.49%). The format is functional.

Activity calls are given as the source filed them. The rule behind the calls is not given here.

For the molecule `COC(=O)/C=C\c1ccc(OC)c(OCCOC(=O)[C@]2(C)CC[C@]3(C)CC[C@]4(C)C5=CC=C6C(=CC(=O)C(O)=C6C)[C@]5(C)CC[C@@]4(C)[C@@H]3C2)c1`, the Activity came to 5.52% in assay [1]; 4.4% in [5]; 53.02% in [6]; 4.5% in [7]; 16.4% in [8]; 52.22% in [9]. Moreover, the Activity in [11] is 35.25%; in [13] it was “Dose-dependent effect”; in [15], 23.55%; in [18], 34.71%; in assay [19], 32.45%; in assay [20] it was 61%. Further, the inhibition result in [2] was “Active”. Moreover, the viability at 0.4 µM in [3] is 69.9%. In addition, the IC50 in assay [4] is 170 nM. Besides, in assay [10], the viability at 1.2 µM was found to be 24.6%. In addition, the outcome in assay [12], in assay [14] and in assay [16] was Active. Moreover, the viability at 0.8 µM in assay [17] amounted to 33.7%.
